Reference: patent US20040009243A1, “Cancer preventive composition comprising ginsenoside glycosides of red ginseng” (priority 2002, published 2004)
Entries after “also recorded” stand apart in the source; their conditions may differ. Like-named read-outs stand apart in the source and are kept apart here.

Key:
[1] = system: lung adenoma induced by benzo(a)pyrene; experiment: 9-weeks medium-term anticarcinogenicity test of ginsenosides (Experiment 1); assay type: in vivo, NIH(GP) mice; details: for incidence of lung adenoma on the average: BP 0.5 mg plus ginsenoside; for incidence of lung adenoma on the average / Incidence (lung adenoma), treatment alone without BP: sacrifice 9th week; for incidence of lung adenoma on the average / Incidence, number of mice with lung adenoma / Incidence, value in parentheses (percent of mice with lung adenoma) / Multiplicity (Mean ± S.D.): BP line = carcinogen alone; for Incidence, number of mice with lung adenoma / Incidence, value in parentheses (percent of mice with lung adenoma) / Multiplicity (Mean ± S.D.): BP 0.5 mg/head + ginsenoside 80 μg/ml; for Incidence (lung adenoma), treatment alone without BP: red ginseng extract 2 mg/ml, ginsenosides 80 μg/ml in drinking water, 6 weeks; for lung adenoma in groups treated singularly, without BP (in words): treatment alone, 9 weeks
Text: 1) Experimental animal: In this experiment newborn non-inbred strain NIH(GP) mice were used. Each experimental animal was in a breeding chamber maintained at constant temperature and humidity and, after weaning, given a solid feed prepared according to the NIH-7 open formula. The experimental animals were allowed to freely take drinking water and diet.
2) Establishment of the test groups: The test groups were a total of 10 groups including the normal control group, the ginsenoside Rg3 treatment group, the ginsenoside Rg5 group, the ginsenoside Rh1 group, the ginsenoside Rh2 group, the BP 0.5 mg group, the BP plus ginsenoside Rg3 group, the BP plus ginsenoside Rg5 group, the BP plus ginsenoside Rh1 group, and the BP plus ginsenoside Rh2 group, wherein 25 to 30 newborn mouse, female and male respectively, were used in each group.
3) Chemical carcinogen: As the chemical carcinogen, benzo(a)pyrene (BP: Sigma Chemical Co.) was used. The given amount of BP was suspended in 1% aqueous gelatin solution and then injected subcutaneously in the subscapular region once in an amount of 0.02 cc (0.5 mg).
4) Administration of respective ginsenosides: Respective ginsenosides, i.e. ginsenoside Rg3, ginsenoside Rg5, ginsenoside Rh1 and ginsenoside Rh2 were suspended in drinking water to 80 μg/ml and daily administered from the 3rd week to 9 th week after birth, i.e. during the period of 6 weeks.
5) Monitoring and sacrifice of experimental animals: The appearance of mice was monitored every time at which the feed and drinking water were changed, beginning from weaning at the 3th week after birth. Mice were weighed at intervals of one week and sacrificed at the 9th week after birth and then subjected to autopsy.
6) Pathological investigation: Immediately after autopsy, lungs were exposed to observe the presence or absence of nodules of lung adenoma, and at the same time, to observe the presence or absence of any lesion in respective main organs by the naked eye. Then lungs were fixed in Tellyesniczky solution and the other main organs were fixed in 10% neutral formalin solution, cut and then examined with a microscope. After fixing of lungs, nodules of long adenoma were counted by the naked eye. Then lungs were cut as in case of other main organs, stained with hematoxylin-eosin and then investigated to find nodules of lung adenoma.
7) Statistical treatment: The comparisons of the calculated lung adenoma incidence in respective test groups were made using the Chi-square test and the comparisons of multiplicity were made using Student's t test to obtain P-value.

[2] = system: mouse pulmonary adenoma induced by benzo(a)pyrene; details: BP + ginseng of given age, BP line = carcinogen alone, cited from earlier work
male ICR mice = experiment: acute toxicity test (Experiment 2); assay type: in vivo; details: for autopsy examination, macroscopic (in words) / dead animals (in words): 1000 mg/kg oral, once; for autopsy examination, macroscopic (in words): 14th day after administration; for dead animals (in words): observed for 14 days; for acute toxicity / toxicity (in words): mice, oral route, 1000 mg/kg
Experimental: 20 male ICR mice weighing 26-30 grams were used in each test group to conduct the acute toxicity test of ginsenosides Rg3, Rg5 and Rh2. Specifically, each of ginsenosides Rg3, Rg5 and Rh2 was prepared in 0.5% Tween 80 as the solvent to the concentration of 100 mg/ml and then orally administered to mice once in an amount of 0.2 ml per 20 grams of body weight. The control group was given only 0.5% Tween 80 solvent via oral route. […] Further, on 14th day after administration the animals were sacrificed and then autopsied to examine macroscopically the main organs.

SMILES | incidence of lung adenoma on the average [1] [%] | Incidence, number of mice with lung adenoma ([1]; Sex F) | Incidence, value in parentheses (percent of mice with lung adenoma) ([1]; Sex F) | Multiplicity (Mean ± S.D.) ([1]; Sex F) | Incidence, number of mice with lung adenoma ([1]; Sex M + F) | Incidence, value in parentheses (percent of mice with lung adenoma) ([1]; Sex M + F) | Multiplicity (Mean ± S.D.) ([1]; Sex M + F) | Incidence, number of mice with lung adenoma ([1]; Sex M) | Incidence, value in parentheses (percent of mice with lung adenoma) ([1]; Sex M) | Multiplicity (Mean ± S.D.) ([1]; Sex M) | autopsy examination, macroscopic (in words) (male ICR mice) | dead animals (in words) (male ICR mice) | acute toxicity / toxicity (in words) (male ICR mice) | Incidence (lung adenoma), treatment alone without BP ([1]; Sex F) | Incidence (lung adenoma), treatment alone without BP ([1]; Sex M + F) | Incidence (lung adenoma), treatment alone without BP ([1]; Sex M) | lung adenoma in groups treated singularly, without BP (in words) [1] | further results
c1ccc2c(c1)cc1ccc3cccc4ccc2c1c34 [Benzo(a)pyrene (BP), benzo(a)pyrene, reference compound] | 60 | 16 | 64.0 | 1.80 ± 2.12 | 30 | 60.0 | 1.50 ± 1.82 | 14 | 56.0 | 1.20 ± 1.44 |  |  |  |  |  |  |  | Incidence of lung adenoma ([2]; Fresh ginseng Extract series): 63.9; Incidence of lung adenoma ([2]; Fresh ginseng Powder series): 41.3; Incidence of lung adenoma ([2]; Red ginseng Extract series): 47.5; Incidence of lung adenoma ([2]; Red ginseng powder series): 48.6; Incidence of lung adenoma ([2]; White ginseng Powder series): 45.0; Incidence of lung adenoma ([2]; White ginseng extract series): 41.3
CC(C)=CCC[C@](C)(O)[C@H]1CC[C@]2(C)[C@@H]1[C@H](O)C[C@@H]1[C@@]3(C)CC[C@H](O[C@@H]4O[C@H](CO)[C@@H](O)[C@H](O)[C@H]4O[C@@H]4O[C@H](CO)[C@@H](O)[C@H](O)[C@H]4O)C(C)(C)[C@@H]3CC[C@]12C [Ginsenoside Rg3, ginsenoside Rg3] | 46.7 | 15 | 50.0 | 1.03 ± 1.27 | 28 | 46.7 | 0.85 ± 1.13 | 13 | 43.3 | 0.67 ± 0.96 | no special pathological finding | no dead animal was observed | did not exhibit any acute toxicity; also recorded: have no toxicity | 0 | 0 | 0 | did never occur lung adenoma | 
CC(C)=CC/C=C(\C)[C@H]1CC[C@]2(C)[C@@H]1[C@H](O)C[C@@H]1[C@@]3(C)CC[C@H](O[C@@H]4O[C@H](CO)[C@@H](O)[C@H](O)[C@H]4O[C@@H]4O[C@H](CO)[C@@H](O)[C@H](O)[C@H]4O)C(C)(C)[C@@H]3CC[C@]12C [Ginsenoside Rg5, ginsenoside Rg5] | 45.0 | 14 | 46.7 | 1.33 ± 2.89 | 27 | 45.0 | 1.08 ± 2.21 | 13 | 43.3 | 0.83 ± 1.21 | no special pathological finding | no dead animal was observed | did not exhibit any acute toxicity; also recorded: have no toxicity | 0 | 0 | 0 | did never occur lung adenoma | 
CC(C)=CCC[C@](C)(O)[C@H]1CC[C@]2(C)[C@@H]1[C@H](O)C[C@@H]1[C@@]3(C)CC[C@H](O)C(C)(C)[C@@H]3[C@@H](O[C@@H]3O[C@H](CO)[C@@H](O)[C@H](O)[C@H]3O)C[C@]12C [Ginsenoside Rh1, ginsenoside Rh1, reference compound] |  | 16 | 53.3 | 1.49 ± 1.86 | 31 | 51.7 | 1.03 ± 1.27 | 15 | 50.0 | 1.20 ± 1.54 |  |  |  |  |  |  | did never occur lung adenoma | 
CC(C)=CCC[C@](C)(O)[C@H]1CC[C@]2(C)[C@@H]1[C@H](O)C[C@@H]1[C@@]3(C)CC[C@H](O[C@@H]4O[C@H](CO)[C@@H](O)[C@H](O)[C@H]4O)C(C)(C)[C@@H]3CC[C@]12C [Ginsenoside Rh2, ginsenoside Rh2] | 48.3 | 16 | 53.3 | 1.53 ± 1.93 | 29 | 48.3 | 1.15 ± 1.61 | 13 | 43.3 | 0.77 ± 1.14 | no special pathological finding | no dead animal was observed | did not exhibit any acute toxicity; also recorded: have no toxicity | 0 | 0 | 0 | did never occur lung adenoma | 
